# Laboratory results from patent publication US12435051B2, “Dual modulator of mGluR5 and 5-HT2A receptor, and use thereof” (Vivozon Inc., priority 2020, dated 2025).
# Columns and labels:
# human 5-HT2AR = biological target: T1, human 5-HT2AR (Homo sapiens, UniProt P28223); assay: HTRF-based IP1 accumulation assay (5-HT2AR antagonistic effect); type: cell-based; settings: HEK293 cells overexpressing human 5-HT2AR; serotonin at EC80
# T1 construct: expressed in transfected cells; host or cells: HEK293
# T1 sequence (P28223 whole entry): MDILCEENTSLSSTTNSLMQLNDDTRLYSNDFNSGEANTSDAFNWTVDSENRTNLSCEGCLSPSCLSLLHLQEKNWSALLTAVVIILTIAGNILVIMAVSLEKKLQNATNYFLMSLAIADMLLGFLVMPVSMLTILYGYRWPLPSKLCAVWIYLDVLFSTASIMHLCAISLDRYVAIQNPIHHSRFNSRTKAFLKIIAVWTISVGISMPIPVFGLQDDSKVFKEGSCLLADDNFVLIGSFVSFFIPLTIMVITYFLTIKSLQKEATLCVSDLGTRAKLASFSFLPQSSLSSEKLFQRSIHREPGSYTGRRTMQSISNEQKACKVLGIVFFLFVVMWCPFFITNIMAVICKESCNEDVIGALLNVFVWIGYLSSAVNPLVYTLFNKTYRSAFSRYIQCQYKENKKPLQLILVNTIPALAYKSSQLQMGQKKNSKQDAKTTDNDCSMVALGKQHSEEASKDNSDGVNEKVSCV
# Description: The 5-HT2AR antagonistic effect of the test compounds was confirmed by measuring the production amount of IP1 using the HEK293 cell line permanently overexpressing the human 5-HT2AR. The test compounds were dissolved in 100% DMSO to a final concentration of 10 mM. The starting concentration of 10 μM was prepared from the stock solution, followed by serial dilutions to prepare working solutions in a buffer containing lithium chloride (LiCl). The cells and compounds prepared in the test buffer were placed in a 96-well plate and incubated at room temperature for 10 minutes. Serotonin of EC80 concentration was added, followed by incubation at 37° C. for 30 minutes in a light-shielding state. To measure IP1 accumulation in cells, JP1-d2 acceptor and IP1-Cryptate donor-which are HTRF-based substances for fluorescence signals-were added and incubated for 1 hour at room temperature in a light-shielded state. The fluorescent emission signals of acceptor and donor were detected, and HTRF ratio values were substracted by mean value of serotonin control. The percentage of activation was calculated by normalization of the serotonin control (0%) and IP1 control (100%). The IC50 values of the test compounds are represented in Table 1. (+: 1,000-2,000 nM, ++: 500-1,000 nM, +++: 100-500 nM, ++++: less than 100 nM).
# mGluR5 = biological target: T2, mGluR5 (Homo sapiens, UniProt P41594); assay: Fluorescence-based Ca2+ mobilization assay; type: cell-based; settings: HEK293 cells overexpressing mGluR5; L-glutamate at EC80
# T2 construct: expressed in transfected cells; host or cells: HEK293
# T2 sequence (P41594 21-1212): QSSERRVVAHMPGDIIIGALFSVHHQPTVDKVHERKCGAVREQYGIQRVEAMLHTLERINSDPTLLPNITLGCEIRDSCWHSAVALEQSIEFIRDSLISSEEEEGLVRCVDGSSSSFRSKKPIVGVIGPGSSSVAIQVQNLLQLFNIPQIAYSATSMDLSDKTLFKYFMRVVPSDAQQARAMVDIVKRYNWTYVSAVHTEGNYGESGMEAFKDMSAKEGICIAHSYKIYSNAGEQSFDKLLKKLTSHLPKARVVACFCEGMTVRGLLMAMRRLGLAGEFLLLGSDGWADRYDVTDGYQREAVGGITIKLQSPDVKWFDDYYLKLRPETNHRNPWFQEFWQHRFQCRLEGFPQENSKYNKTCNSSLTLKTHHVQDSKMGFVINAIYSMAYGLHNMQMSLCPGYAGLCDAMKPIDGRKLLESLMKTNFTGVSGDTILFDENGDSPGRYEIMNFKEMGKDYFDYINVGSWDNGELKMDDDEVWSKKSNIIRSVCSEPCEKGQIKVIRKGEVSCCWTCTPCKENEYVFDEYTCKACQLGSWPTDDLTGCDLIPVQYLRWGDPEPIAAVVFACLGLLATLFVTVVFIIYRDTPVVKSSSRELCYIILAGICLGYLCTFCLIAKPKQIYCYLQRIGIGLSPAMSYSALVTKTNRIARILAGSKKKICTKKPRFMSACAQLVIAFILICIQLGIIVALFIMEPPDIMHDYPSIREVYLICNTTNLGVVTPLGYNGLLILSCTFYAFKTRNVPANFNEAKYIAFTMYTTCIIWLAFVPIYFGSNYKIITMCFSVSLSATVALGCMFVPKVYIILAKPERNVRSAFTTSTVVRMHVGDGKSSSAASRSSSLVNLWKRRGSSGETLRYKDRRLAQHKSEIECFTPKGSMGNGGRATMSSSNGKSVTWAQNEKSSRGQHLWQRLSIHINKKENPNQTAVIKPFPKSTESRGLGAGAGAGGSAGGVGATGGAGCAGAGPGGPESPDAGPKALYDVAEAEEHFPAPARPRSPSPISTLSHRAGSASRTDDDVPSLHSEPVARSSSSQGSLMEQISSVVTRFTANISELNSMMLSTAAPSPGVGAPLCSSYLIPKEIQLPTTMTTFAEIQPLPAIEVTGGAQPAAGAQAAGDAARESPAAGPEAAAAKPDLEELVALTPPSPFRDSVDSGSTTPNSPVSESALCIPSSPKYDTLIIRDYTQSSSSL
# Description: In order to measure the activity on the mGluR5, an experiment was carried out to check the change in the intracellular Ca^2+ level using the HEK293 cell line permanently overexpressing the mGluR5. The cells in the cell culture medium were aliquoted into a 384-well plate coated with poly-D-lysine and cultured in a 37° C. incubator supplied with 5% CO2. The next day, the medium was removed and a dye loading buffer—in which a reagent capable of measuring Ca^2+ was dissolved—was added, and then incubated at 37° C. for 60 minutes. The test compounds were dissolved in 100% DMSO at a final concentration of 10 mM to make a stock solution. The starting concentration of […] was prepared from the stock solution, followed by serial dilutions to prepare working solutions (test compound working solutions). The test compound working solutions were added to the cells that were incubated in the dye loading buffer, which were maintained for 30 minutes at room temperature in a light-shielding state before measurement. The Ca^2+ level change induced by L-glutamate at EC80 concentration was measured for 2 minutes using FLIPR Tetra (MDS Analytical Technologies). The fluorescent Ca^2+ signal values in the presence of the test compounds were normalized to the fluorescent signal elicited by […] concentration of L-glutamate as 100% and that elicited by vehicle as 0% to estimate % inhibition of the test compounds. The efficacy of the test compounds was calculated as IC50 values and represented in Table 1. (+: 1,000-2,000 nM, ++: 500-1,000 nM, +++: 100-500 nM, ++++: less than 100 nM).
Compound,IC50 (human 5-HT2AR) [µM],IC50 (mGluR5) [µM]
"O=C(NCC1CCC(F)(F)CC1)c1ccc(C#Cc2ccc(F)cc2F)cc1 [Example 121, N-((4,4-difluorocyclohexyl)methyl)-4-((2,4-difluorophenyl)ethynyl)benzamide]",0.5 to 1,< 0.1
"O=C(NC[C@H]1C[C@@H](O)C1)c1ccc(C#Cc2ccccc2F)cc1 [Example 85, 4-((2-fluorophenyl)ethynyl)-N-(((1s,3s)-3-hydroxycyclobutyl)methyl)benzamide]",0.5 to 1,0.1 to 0.5
"[2H]C(NC(=O)c1ccc(C#Cc2ccccc2F)cc1)C1(C)COC1 (stereo not shown) [Example 95, 4-((2-fluorophenyl)ethynyl)-N-((3-methyloxetan-3-yl)methyl-d)benzamide]",0.5 to 1,< 0.1
"O=C(NCC1(NC2CC2)CCCCC1)c1ccc(C#Cc2ccc(F)cc2)cc1 [Example 19, N-((1-(cyclopropylamino)cyclohexyl)methyl)-4-((4-fluorophenyl)ethynyl)benzamide]",< 0.1,1 to 2
"O=C(NCC1(CC2CC2)CCOCC1)c1ccc(C#Cc2ccccc2F)cc1 [Example 29, N-((4-(cyclopropylmethyl)tetrahydro-2H-pyran-4-yl)methyl)-4-((2-fluorophenyl)ethynyl)benzamide]",0.1 to 0.5,0.1 to 0.5
"O=C(NCC1CCOCC1)c1ccc(C#Cc2ccc(F)cc2)cc1 [Example 33, 4-((4-fluorophenyl)ethynyl)-N-((tetrahydro-2H-pyran-4-yl)methyl)benzamide]",1 to 2,0.1 to 0.5
"CN(C)C(=O)CC1(CNC(=O)c2ccc(C#Cc3ccccc3F)cc2)CCCCC1 [Example 81, N-((1-(2-(dimethylamino)-2-oxoethyl)cyclohexyl)methyl)-4-((2-fluorophenyl)ethynyl)benzamide]",0.1 to 0.5,0.5 to 1
"O=C(NCC1(NC2CC2)CCCCCC1)c1ccc(C#Cc2ccc(F)cn2)cc1 [Example 15, N-((1-(cyclopropylamino)cycloheptyl)methyl)-4-((5-fluoropyridin-2-yl)ethynyl)benzamide]",0.1 to 0.5,0.5 to 1
"O=C(NC[C@@H]1CCCOC1)c1ccc(C#Cc2ccc(F)cc2F)cc1 [Example 124, (S)-4-((2,4-difluorophenyl)ethynyl)-N-((tetrahydro-2H-pyran-3-yl)methyl)benzamide]",0.1 to 0.5,0.1 to 0.5
"O=C(NCC1CCO1)c1ccc(C#Cc2ccc(F)cc2F)cc1 (stereo not shown) [Example 118, 4-((2,4-difluorophenyl)ethynyl)-N-(oxetan-2-ylmethyl)benzamide]",< 0.1,1 to 2
"CNC(=O)CC1(CNC(=O)c2ccc(C#Cc3ccccc3F)cc2)CCCCC1 [Example 80, 4-((2-fluorophenyl)ethynyl)-N-((1-(2-(methylamino)-2-oxoethyl)cyclohexyl)methyl)benzamide]",0.1 to 0.5,0.1 to 0.5
"CC1(C)CC(CNC(=O)c2ccc(C#Cc3ccccc3F)cc2)CCO1 (stereo not shown) [Example 67, N-((2,2-dimethyltetrahydro-2H-pyran-4-yl)methyl)-4-((2-fluorophenyl)ethynyl)benzamide]",0.5 to 1,0.1 to 0.5
"O=C(NC[C@@H]1CCCOC1)c1ccc(C#Cc2ccccc2F)cc1 [Example 91, (S)-4-((2-fluorophenyl)ethynyl)-N-((tetrahydro-2H-pyran-3-yl)methyl)benzamide]",1 to 2,< 0.1
"O=C(NC[C@@H]1CCCO1)c1ccc(C#Cc2ccc(F)cc2F)cc1 [Example 117, (S)-4-((2,4-difluorophenyl)ethynyl)-N-((tetrahydrofuran-2-yl)methyl)benzamide]",< 0.1,0.5 to 1
"CC1(CNC(=O)c2ccc(C#Cc3ccc(F)cc3F)cc2)CCC1 [Example 107, 4-((2,4-difluorophenyl)ethynyl)-N-((1-methylcyclobutyl)methyl)benzamide]",< 0.1,< 0.1
"O=C(NCC1(CCCO)CCCCC1)c1ccc(C#Cc2ccccc2F)cc1 [Example 62, 4-((2-fluorophenyl)ethynyl)-N-((1-(3-hydroxypropyl)cyclohexyl)methyl)benzamide]",1 to 2,0.1 to 0.5
"O=C(NCC1CCCCO1)c1ccc(C#Cc2ccccc2F)cc1 (stereo not shown) [Example 54, 4-((2-fluorophenyl)ethynyl)-N-((tetrahydro-2H-pyran-2-yl)methyl)benzamide]",0.1 to 0.5,< 0.1
"O=C(NCC1(O)CCCCC1)c1ccc(C#Cc2ccccc2F)cc1 [Example 32, 4-((2-fluorophenyl)ethynyl)-N-((1-hydroxycyclohexyl)methyl)benzamide]",0.5 to 1,< 0.1
"O=C(NCC1CC(F)(F)C1)c1ccc(C#Cc2ccc(F)cc2F)cc1 [Example 120, N-((3,3-difluorocyclobutyl)methyl)-4-((2,4-difluorophenyl)ethynyl)benzamide]",< 0.1,0.1 to 0.5
"O=C(CC1(CNC(=O)c2ccc(C#Cc3ccccc3F)cc2)CCCCC1)NO [Example 79, 4-((2-fluorophenyl)ethynyl)-N-((1-(2-(hydroxyamino)-2-oxoethyl)cyclohexyl)methyl)benzamide]",1 to 2,0.1 to 0.5
"O=C(O)CCC1(CNC(=O)c2ccc(C#Cc3ccccc3F)cc2)CCCCC1 [Example 61, 3-(1-((4-((2-fluorophenyl)ethynyl)benzamido)methyl)cyclohexyl)propanoic acid]",0.5 to 1,1 to 2
"[2H]C([2H])(NC(=O)c1ccc(C#Cc2ccccc2F)cc1)C1CCOCC1 [Example 68, 4-((2-fluorophenyl)ethynyl)-N-((tetrahydro-2H-pyran-4-yl)methyl-d2)benzamide]",0.5 to 1,0.1 to 0.5
"O=C(NCC1(O)CCC1)c1ccc(C#Cc2ccccc2F)cc1 [Example 57, 4-((2-fluorophenyl)ethynyl)-N-((1-hydroxycyclobutyl)methyl)benzamide]",0.5 to 1,< 0.1
"O=C(NC[C@@H]1CCOC1)c1ccc(C#Cc2ccc(F)cc2)cc1 [Example 102, (S)-4-((4-fluorophenyl)ethynyl)-N-((tetrahydrofuran-3-yl)methyl)benzamide]",< 0.1,0.1 to 0.5
"O=C(NC[C@H]1CCCOC1)c1ccc(C#Cc2ccc(F)cc2)cc1 [Example 99, (R)-4-((4-fluorophenyl)ethynyl)-N-((tetrahydro-2H-pyran-3-yl)methyl)benzamide]",0.1 to 0.5,< 0.1
"CC1CCC(CNC(=O)c2ccc(C#Cc3ccccc3F)cc2)(NC2CC2)CC1 (stereo not shown) [Example 26, N-((1-(cyclopropylamino)-4-methylcyclohexyl)methyl)-4-((2-fluorophenyl)ethynyl)benzamide]",< 0.1,1 to 2
"CC1(CNC(=O)c2ccc(C#Cc3ccc(F)cc3)cc2)CCCCC1 [Example 104, 4-((4-fluorophenyl)ethynyl)-N-((1-methylcyclohexyl)methyl)benzamide]",1 to 2,< 0.1
"O=C(NCC1(F)CCCCC1)c1ccc(C#Cc2ccc(F)cc2F)cc1 [Example 73, 4-((2,4-difluorophenyl)ethynyl)-N-((1-fluorocyclohexyl)methyl)benzamide]",1 to 2,< 0.1
"CC(C)NC1(CNC(=O)c2ccc(C#Cc3ccccc3F)cc2)CCOCC1 [Example 24, 4-((2-fluorophenyl)ethynyl)-N-((4-(isopropylamino)tetrahydro-2H-pyran-4-yl)methyl)benzamide]",0.1 to 0.5,0.1 to 0.5
